The NIST ThermoML archive (doi:10.1021/je300938w)
Numbers after ± are expanded uncertainties.

Test: refractive index (Na D-line) (dimensionless); wn = mass fraction of the nth substance listed
Conditions: 328.15 K; 101 kPa; Liquid; Standard Abbe refractometry; w1 = 0.1

SMILES | refractive index
CC(O)CN (configuration not stated) [1-amino-2-propanol] + O | 1.3405 ± 0.00032
CC(O)CNCC(C)O (configuration not stated) [N-(2-hydroxypropyl)-2-hydroxy-1-propanamine] + O | 1.34256 ± 0.00032
OCCNCCO [diethanolamine] + O | 1.34148 ± 0.00031

Same assay, conditions: 328.15 K; 101 kPa; Liquid; Standard Abbe refractometry; w1 = 0.15

SMILES | refractive index
CC(O)CN (configuration not stated) [1-amino-2-propanol] + O | 1.34705 ± 0.00032
CC(O)CNCC(C)O (configuration not stated) [N-(2-hydroxypropyl)-2-hydroxy-1-propanamine] + O | 1.3494 ± 0.00032
OCCNCCO [diethanolamine] + O | 1.34935 ± 0.00031

Same assay, conditions: 328.15 K; 101 kPa; Liquid; Standard Abbe refractometry; w1 = 0.2

SMILES | refractive index
CC(O)CN (configuration not stated) [1-amino-2-propanol] + O | 1.3533 ± 0.00033
CC(O)CNCC(C)O (configuration not stated) [N-(2-hydroxypropyl)-2-hydroxy-1-propanamine] + O | 1.35615 ± 0.00033
OCCNCCO [diethanolamine] + O | 1.3568 ± 0.00031

Same assay, conditions: 328.15 K; 101 kPa; Liquid; Standard Abbe refractometry; w1 = 0.25

SMILES | refractive index
CC(O)CN (configuration not stated) [1-amino-2-propanol] + O | 1.35985 ± 0.00033
CC(O)CNCC(C)O (configuration not stated) [N-(2-hydroxypropyl)-2-hydroxy-1-propanamine] + O | 1.36294 ± 0.00033
OCCNCCO [diethanolamine] + O | 1.36453 ± 0.00031

Same assay, conditions: 333.15 K; 101 kPa; Liquid; Standard Abbe refractometry; w1 = 0.05

SMILES | refractive index
CC(O)CN (configuration not stated) [1-amino-2-propanol] + O | 1.3328 ± 0.00031
CC(O)CNCC(C)O (configuration not stated) [N-(2-hydroxypropyl)-2-hydroxy-1-propanamine] + O | 1.33467 ± 0.00031
OCCNCCO [diethanolamine] + O | 1.3334 ± 0.00031

Same assay, conditions: 333.15 K; 101 kPa; Liquid; Standard Abbe refractometry; w1 = 0.1

SMILES | refractive index
CC(O)CN (configuration not stated) [1-amino-2-propanol] + O | 1.33936 ± 0.00032
CC(O)CNCC(C)O (configuration not stated) [N-(2-hydroxypropyl)-2-hydroxy-1-propanamine] + O | 1.34147 ± 0.00032
OCCNCCO [diethanolamine] + O | 1.34044 ± 0.00031

Same assay, conditions: 333.15 K; 101 kPa; Liquid; Standard Abbe refractometry; w1 = 0.15

SMILES | refractive index
CC(O)CN (configuration not stated) [1-amino-2-propanol] + O | 1.34581 ± 0.00032
CC(O)CNCC(C)O (configuration not stated) [N-(2-hydroxypropyl)-2-hydroxy-1-propanamine] + O | 1.34831 ± 0.00032
OCCNCCO [diethanolamine] + O | 1.3485 ± 0.00031

Same assay, conditions: 333.15 K; 101 kPa; Liquid; Standard Abbe refractometry; w1 = 0.2

SMILES | refractive index
CC(O)CN (configuration not stated) [1-amino-2-propanol] + O | 1.35211 ± 0.00033
CC(O)CNCC(C)O (configuration not stated) [N-(2-hydroxypropyl)-2-hydroxy-1-propanamine] + O | 1.35501 ± 0.00033
OCCNCCO [diethanolamine] + O | 1.35582 ± 0.00031

Same assay, conditions: 333.15 K; 101 kPa; Liquid; Standard Abbe refractometry; w1 = 0.25

SMILES | refractive index
CC(O)CN (configuration not stated) [1-amino-2-propanol] + O | 1.35861 ± 0.00033
CC(O)CNCC(C)O (configuration not stated) [N-(2-hydroxypropyl)-2-hydroxy-1-propanamine] + O | 1.36175 ± 0.00033
OCCNCCO [diethanolamine] + O | 1.36354 ± 0.00031

Same assay, conditions: 338.15 K; 101 kPa; Liquid; Standard Abbe refractometry; w1 = 0.05

SMILES | refractive index
CC(O)CN (configuration not stated) [1-amino-2-propanol] + O | 1.33173 ± 0.00031
CC(O)CNCC(C)O (configuration not stated) [N-(2-hydroxypropyl)-2-hydroxy-1-propanamine] + O | 1.33363 ± 0.00031
OCCNCCO [diethanolamine] + O | 1.33234 ± 0.00031

Same assay, conditions: 338.15 K; 101 kPa; Liquid; Standard Abbe refractometry; w1 = 0.1

SMILES | refractive index
CC(O)CN (configuration not stated) [1-amino-2-propanol] + O | 1.33832 ± 0.00032
CC(O)CNCC(C)O (configuration not stated) [N-(2-hydroxypropyl)-2-hydroxy-1-propanamine] + O | 1.34037 ± 0.00032
OCCNCCO [diethanolamine] + O | 1.33938 ± 0.00031

Same assay, conditions: 338.15 K; 101 kPa; Liquid; Standard Abbe refractometry; w1 = 0.15

SMILES | refractive index
CC(O)CN (configuration not stated) [1-amino-2-propanol] + O | 1.34462 ± 0.00032
CC(O)CNCC(C)O (configuration not stated) [N-(2-hydroxypropyl)-2-hydroxy-1-propanamine] + O | 1.34702 ± 0.00032
OCCNCCO [diethanolamine] + O | 1.34755 ± 0.00031

Same assay, conditions: 338.15 K; 101 kPa; Liquid; Standard Abbe refractometry; w1 = 0.2

SMILES | refractive index
CC(O)CN (configuration not stated) [1-amino-2-propanol] + O | 1.35092 ± 0.00033
CC(O)CNCC(C)O (configuration not stated) [N-(2-hydroxypropyl)-2-hydroxy-1-propanamine] + O | 1.35377 ± 0.00033
OCCNCCO [diethanolamine] + O | 1.3547 ± 0.00031

Same assay, conditions: 338.15 K; 101 kPa; Liquid; Standard Abbe refractometry; w1 = 0.25

SMILES | refractive index
CC(O)CN (configuration not stated) [1-amino-2-propanol] + O | 1.35753 ± 0.00033
CC(O)CNCC(C)O (configuration not stated) [N-(2-hydroxypropyl)-2-hydroxy-1-propanamine] + O | 1.36051 ± 0.00033
OCCNCCO [diethanolamine] + O | 1.36244 ± 0.00031

Same assay, conditions: 343.15 K; 101 kPa; Liquid; Standard Abbe refractometry; w1 = 0.05

SMILES | refractive index
CC(O)CN (configuration not stated) [1-amino-2-propanol] + O | 1.33057 ± 0.00031
CC(O)CNCC(C)O (configuration not stated) [N-(2-hydroxypropyl)-2-hydroxy-1-propanamine] + O | 1.33224 ± 0.00031
OCCNCCO [diethanolamine] + O | 1.33122 ± 0.00031

Same assay, conditions: 343.15 K; 101 kPa; Liquid; Standard Abbe refractometry; w1 = 0.1

SMILES | refractive index
CC(O)CN (configuration not stated) [1-amino-2-propanol] + O | 1.33713 ± 0.00032
CC(O)CNCC(C)O (configuration not stated) [N-(2-hydroxypropyl)-2-hydroxy-1-propanamine] + O | 1.33899 ± 0.00032
OCCNCCO [diethanolamine] + O | 1.3382 ± 0.00031

Same assay, conditions: 343.15 K; 101 kPa; Liquid; Standard Abbe refractometry; w1 = 0.15

SMILES | refractive index
CC(O)CN (configuration not stated) [1-amino-2-propanol] + O | 1.34343 ± 0.00032
CC(O)CNCC(C)O (configuration not stated) [N-(2-hydroxypropyl)-2-hydroxy-1-propanamine] + O | 1.34583 ± 0.00032
OCCNCCO [diethanolamine] + O | 1.34633 ± 0.00031

Same assay, conditions: 343.15 K; 101 kPa; Liquid; Standard Abbe refractometry; w1 = 0.2

SMILES | refractive index
CC(O)CN (configuration not stated) [1-amino-2-propanol] + O | 1.34968 ± 0.00033
CC(O)CNCC(C)O (configuration not stated) [N-(2-hydroxypropyl)-2-hydroxy-1-propanamine] + O | 1.35253 ± 0.00033
OCCNCCO [diethanolamine] + O | 1.35356 ± 0.00031

Same assay, conditions: 343.15 K; 101 kPa; Liquid; Standard Abbe refractometry; w1 = 0.25

SMILES | refractive index
CC(O)CN (configuration not stated) [1-amino-2-propanol] + O | 1.35614 ± 0.00033
CC(O)CNCC(C)O (configuration not stated) [N-(2-hydroxypropyl)-2-hydroxy-1-propanamine] + O | 1.35922 ± 0.00033
OCCNCCO [diethanolamine] + O | 1.3614 ± 0.00031
